Assay results: patent US20230079045A1 (priority 2019, published 2023)
pEC50: −log10 of the molar value.

Test system: IFV A/PR/8/34
Assay: cytopathic effect (CPE) antiviral test in MDCK cells, IFV A/PR/8/34
Assay type: cell-based, influenza virus
Conditions: MDCK cells, CPE method, CCK-8 cell viability, 5 days; read-out: EC50(IFV A/PR/8/34)

Row | Compound | pEC50
1 | Cn1cncc1-c1ccc2nc(-c3ccnc(C(=O)N4CCN(C(c5ccccc5)c5nnn(C(F)F)n5)CC4)c3)oc2c1 (racemic) [Compound 160, (R/S)-(4-((2-(difluoromethyl)-2H-tetrazol-5-yl)(phenyl)-13-methyl)piperazin-1-yl)(4-(6-(1-methyl-1H-imidazol-5-yl)benzo[d]oxazol-2-yl)pyridin-2-yl)methanone] | 7.74

Same assay, conditions: unidentified influenza virus, PR/8, MDCK, 120 h, read-out: EC50(IFV A/PR/8/34)

Row | Compound | pEC50
2 | Cc1n[nH]c(C)c1-c1ccc2oc(-c3ccnc(C(=O)N4CCN(C(c5ccccc5)c5nnn(C(F)F)n5)CC4)c3)nc2c1 (racemic) [Compound 156, (R/S)-(4-((2-(difluoromethyl)-2H-tetrazol-5-yl)(phenyl)methyl)piperazin-1-yl)(4-(5-(3,5-dimethyl-1H-pyrazol-4-yl)benzo[d]oxazol-2-yl)pyridin-2-yl)methanone] | 8.15
3 | [2H]C([2H])([2H])C(C(=O)Nc1ccc2oc(-c3ccnc(C(=O)N4CCN([C@H](c5ccccc5)c5nnn(C(F)F)n5)CC4)c3)cc2c1)C([2H])([2H])[2H] [Compound 136, 3,3,3-trideuterio-N-[2-[2-[4-[(R)-[2-(difluoromethyl)tetrazol-5-yl]-phenyl-methyl]piperazine-1-carbonyl]-4-pyridyl]benzofuran-5-yl]-2-(trideuteriomethyl)propanamide] | 8.10
4 | Cc1nnn([C@@H](c2ccsc2)C2CCN(C(=O)c3cc(-c4nc5cc(NC(=O)[C@@H]6C[C@@H]6F)ccc5o4)ccn3)CC2)n1 [Compound 203, (1S,2S)-2-fluoro-N-(2-(2-(4-((R)-(5-methyl-2H-tetrazol-2-yl)(thiophen-3-yl)methyl)piperidine-1-carbonyl)pyridin-4-yl)benzo[d]oxazol-5-yl)cyclopropanecarboxamide] | 7.72
5 | Cc1nnn(C(c2ccccc2)C2CCN(C(=O)c3cc(-c4cc5cc(NC(=O)C6(F)CC6)ccc5o4)ccn3)CC2)n1 (racemic) [Compound 144] | 8.15
6 | O=C(c1cc(-c2nc3cc(-c4ccns4)ccc3o2)ccn1)N1CCN(C(c2ccccc2)c2nnn(C(F)F)n2)CC1 (racemic) [Compound 115, (R/S)-(4-((2-(difluoromethyl)-2H-tetrazol-5-yl)(phenyl)methyl)piperazin-1-yl)(4-(5-(isothiazol-5-yl)benzo[d]oxazol-2-yl)pyridin-2-yl)methanone] | 7.19
7 | Cc1nnn(C(c2ccccc2)C2CCN(C(=O)c3cc(-c4nc5ccc(NC(=O)[C@@H]6C[C@@H]6F)cc5o4)ccn3)CC2)n1 (single isomer, unassigned) [Compound 134] | 8.40
8 | O=C(Nc1ccc2oc(-c3ccnc(C(=O)N4CCN(C(c5ccccc5)c5nnn(CF)n5)CC4)c3)nc2c1)[C@@H]1C[C@@H]1F (mixture of isomers) [Compound 150, (1S,2S)-2-fluoro-N-(2-(2-(4-((S/R)-(2-(fluoromethyl)-2H-tetrazol-5-yl)(phenyl)methyl)piperazine-1-carbonyl)pyridin-4-yl)benzo[d]oxazol-5-yl)cyclopropane-1-carboxamide] | 8.10
9 | Cn1ccc(-c2ccc3oc(-c4ccnc(C(=O)N5CCN(C(c6ccccc6)c6nnn(C(F)F)n6)CC5)c4)nc3c2)n1 (racemic) [Compound 153, (R/S)-(4-((2-(difluoromethyl)-2H-tetrazol-5-yl)(phenyl)methyl)piperazin-1-yl)(4-(5-(1-methyl-1H-pyrazol-3-yl)benzo[d]oxazol-2-yl)pyridin-2-yl)methanone] | 8.15
10 | O=C(c1cc(-c2nc3cc(-c4cn(C(F)F)cn4)ccc3o2)ccn1)N1CCC(C(c2ccccc2)n2nnc(CO)n2)CC1 (racemic) [Compound 207, (R/S)-(4-(5-(1-(difluoromethyl)-1H-imidazol-4-yl)benzo[d]oxazol-2-yl)pyridin-2-yl)(4-((5-(hydroxymethyl)-2H-tetrazol-2-yl)(phenyl)methyl)piperidin-1-yl)methanone] | 8.89
11 | Cc1nnn(C(c2ccccc2)C2CCN(C(=O)c3cc(-c4nc5cc(-c6cnsc6)ccc5o4)ccn3)CC2)n1 (racemic) [Compound 140, (R/S)-(4-(5-(isothiazol-4-yl)benzo[d]oxazol-2-yl)pyridin-2-yl)(4-((5-methyl-2H-tetrazol-2-yl)(phenyl)methyl)piperidin-1-yl)methanone] | 8.40
12 | Cc1nnn([C@@H](c2ccccc2)C2CCN(C(=O)c3cc(-c4cc5cc(NC(=O)[C@@H]6C[C@@H]6F)ccc5o4)ccn3)CC2)n1 [Compound 139, (1S,2S)-2-fluoro-N-(2-(2-(4-((R)-(5-methyl-2H-tetrazol-2-yl)(phenyl)methyl)piperidine-1-carbonyl)pyridin-4-yl)benzofuran-5-yl)cyclopropanecarboxamide] | 8.40
13 | O=C(c1cc(-c2nc3cc(-c4cn(C(F)F)cn4)ccc3o2)ccn1)N1CCC(C(c2ccccc2)n2nnc(CO)n2)CC1 (stereo not drawn) [Compound 217, (4-(5-(1-(difluoromethyl)-1H-imidazol-4-yl)benzo[d]oxazol-2-yl)pyridin-2-yl)(4-((5-(hydroxymethyl)-2H-tetrazol-2-yl)(phenyl)methyl)piperidin-1-yl)methanone] | 8.48
14 | O=C(Nc1ccc2nc(-c3ccnc(C(=O)N4CCN(C(c5ccccc5)c5nnn(C(F)F)n5)CC4)c3)oc2c1)[C@@H]1C[C@@H]1F (mixture of isomers) [Compound 93, (1S,2S)—N-(2-(2-(4-((R/S)-(2-(difluoromethyl)-2H-tetrazol-5-yl)(phenyl)methyl)piperazine-1-carbonyl)pyridin-4-yl)benzo[d]oxazol-6-yl)-2-fluorocyclopropane-1-carboxamide] | 7.80
15 | O=C(c1cc(-c2nc3cc(-c4cnn(C5COC5)c4)ccc3o2)ccn1)N1CCN(C(c2ccccc2)c2nnn(C(F)F)n2)CC1 (racemic) [Compound 151, (R/S)-(4-((2-(difluoromethyl)-2H-tetrazol-5-yl)(phenyl)methyl)piperazin-1-yl)(4-(5-(1-(oxetan-3-yl)-1H-pyrazol-4-yl)benzo[d]oxazol-2-yl)pyridin-2-yl)methanone] | 7.42
16 | Cc1nnn(C(c2ccccc2)C2CCN(C(=O)c3cc(-c4cc5cc(NC(=O)C(C)(C)F)ccc5o4)ccn3)CC2)n1 (racemic) [Compound 142, (R/S)-2-fluoro-2-methyl-N-(2-(2-(4-((5-methyl-2H-tetrazol-2-yl)(phenyl)methyl)piperidine-1-carbonyl)pyridin-4-yl)benzofuran-5-yl)propanamide] | 7.64
17 | O=C(c1cc(-c2nc3cc(-c4cncn4C(F)F)ccc3o2)ccn1)N1CCN(C(c2ccccc2)c2nnn(C(F)F)n2)CC1 (racemic) [Compound 171, (R/S)-(4-(5-(1-(difluoromethyl)-1H-imidazol-5-yl)benzo[d]oxazol-2-yl)pyridin-2-yl)(4-((2-(difluoromethyl)-2H-tetrazol-5-yl)(phenyl)methyl)piperazin-1-yl)methanone] | 8.30
18 | O=C(Nc1ccc2oc(-c3ccnc(C(=O)N4CCC(C(c5ccccc5)n5nnc(CO)n5)CC4)c3)nc2c1)[C@@H]1C[C@@H]1F (mixture of isomers) [Compound 197, (1S,2S)-2-fluoro-N-(2-(2-(4-((R/S)-(5-(hydroxymethyl)-2H-tetrazol-2-yl)(phenyl)methyl)piperidine-1-carbonyl)pyridin-4-yl)benzo[d]oxazol-5-yl)cyclopropane-1-carboxamide] | 9.05
19 | O=C(c1cc(-c2nc3cc(-c4cncn4C(F)F)ccc3o2)ccn1)N1CCC(C(c2ccccc2)n2nnc(CO)n2)CC1 (racemic) [Compound 206, (R/S)-(4-(5-(1-(difluoromethyl)-1H-imidazol-5-yl)benzo[d]oxazol-2-yl)pyridin-2-yl)(4-((5-(hydroxymethyl)-2H-tetrazol-2-yl)(phenyl)methyl)piperidin-1-yl)methanone] | 8.35
20 | Cc1nnn(C(c2ccccc2)C2CCN(C(=O)c3nccc(-c4nc5cc(NC(=O)[C@@H]6C[C@@H]6F)ccc5o4)c3F)CC2)n1 (mixture of isomers) [Compound 219, (1S,2S)-2-fluoro-N-(2-(3-fluoro-2-(4-((R/S)-(5-methyl-2H-tetrazol-2-yl)(phenyl)methyl)piperidine-1-carbonyl)pyridin-4-yl)benzo[d]oxazol-5-yl)cyclopropanecarboxamide] | 8.72
21 | O=C(Nc1ccc2oc(-c3ccnc(C(=O)N4CCC(C(c5ccccc5)c5nnn(C(F)F)n5)CC4)c3)nc2c1)[C@@H]1C[C@@H]1F (mixture of isomers) [Compound 168, (1S,2S)—N-(2-(2-(4-((R/S)-(2-(difluoromethyl)-2H-tetrazol-5-yl)(phenyl)methyl)piperidine-1-carbonyl)pyridin-4-yl)benzo[d]oxazol-5-yl)-2-fluorocyclopropane-1-carboxamide] | 8.70
22 | Cc1nnn(C(c2ccccc2)C2CCN(C(=O)c3cc(-c4nc5cc(-c6ccn(C)n6)ccc5o4)ccn3)CC2)n1 (racemic) [Compound 183, (R/S)-(4-(5-(1-methyl-1H-pyrazol-3-yl)benzo[d]oxazol-2-yl)pyridin-2-yl)(4-((5-methyl-2H-tetrazol-2-yl)(phenyl)methyl)piperidin-1-yl)methanone] | 7.74
23 | Cc1nnn(C(c2ccccc2)C2CCN(C(=O)c3cc(-c4nc5cc(NC(=O)[C@@H]6C[C@H]6F)ccc5o4)ccn3)CC2)n1 (mixture of isomers) [Compound 190, (1S,2R)-2-fluoro-N-(2-(2-(4-((R/S)-(5-methyl-2H-tetrazol-2-yl)(phenyl)methyl)piperidine-1-carbonyl)pyridin-4-yl)benzo[d]oxazol-5-yl)cyclopropane-1-carboxamide] | 7.96
24 | Cc1nnn(C(c2ccccc2)C2CCN(C(=O)c3cc(-c4nc5cc(NC(=O)[C@H]6C[C@H]6F)ccc5o4)ccn3)CC2)n1 (mixture of isomers) [Compound 185, (1R,2R)-2-fluoro-N-(2-(2-(4-((R/S)-(5-methyl-2H-tetrazol-2-yl)(phenyl)methyl)piperidine-1-carbonyl)pyridin-4-yl)benzo[d]oxazol-5-yl)cyclopropanecarboxamide] | 7.62
